The target in experiment [1] is T1, D(2) dopamine receptor (Homo sapiens, UniProt P14416). Kind of experiment: Displacement of [3H]-YM 09151 from D2 receptor.
In experiment [2] the target is T2, Adrenergic receptor alpha-1 (Rattus norvegicus, UniProt P15823+P23944+P43140).
T2 sequence (P15823 whole entry): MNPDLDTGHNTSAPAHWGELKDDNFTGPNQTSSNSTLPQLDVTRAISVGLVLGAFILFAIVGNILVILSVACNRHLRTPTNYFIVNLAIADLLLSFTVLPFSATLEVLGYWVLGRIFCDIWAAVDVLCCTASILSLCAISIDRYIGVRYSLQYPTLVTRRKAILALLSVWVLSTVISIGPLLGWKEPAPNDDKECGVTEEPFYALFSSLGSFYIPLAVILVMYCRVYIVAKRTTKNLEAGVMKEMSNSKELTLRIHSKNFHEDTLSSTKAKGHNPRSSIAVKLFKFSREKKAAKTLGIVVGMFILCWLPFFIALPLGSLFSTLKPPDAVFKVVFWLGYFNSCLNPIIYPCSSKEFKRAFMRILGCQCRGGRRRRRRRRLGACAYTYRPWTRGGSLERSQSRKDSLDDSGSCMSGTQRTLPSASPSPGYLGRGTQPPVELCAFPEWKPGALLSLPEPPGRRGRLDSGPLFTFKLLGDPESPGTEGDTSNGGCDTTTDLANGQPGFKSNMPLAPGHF
T2 sequence (P23944 whole entry): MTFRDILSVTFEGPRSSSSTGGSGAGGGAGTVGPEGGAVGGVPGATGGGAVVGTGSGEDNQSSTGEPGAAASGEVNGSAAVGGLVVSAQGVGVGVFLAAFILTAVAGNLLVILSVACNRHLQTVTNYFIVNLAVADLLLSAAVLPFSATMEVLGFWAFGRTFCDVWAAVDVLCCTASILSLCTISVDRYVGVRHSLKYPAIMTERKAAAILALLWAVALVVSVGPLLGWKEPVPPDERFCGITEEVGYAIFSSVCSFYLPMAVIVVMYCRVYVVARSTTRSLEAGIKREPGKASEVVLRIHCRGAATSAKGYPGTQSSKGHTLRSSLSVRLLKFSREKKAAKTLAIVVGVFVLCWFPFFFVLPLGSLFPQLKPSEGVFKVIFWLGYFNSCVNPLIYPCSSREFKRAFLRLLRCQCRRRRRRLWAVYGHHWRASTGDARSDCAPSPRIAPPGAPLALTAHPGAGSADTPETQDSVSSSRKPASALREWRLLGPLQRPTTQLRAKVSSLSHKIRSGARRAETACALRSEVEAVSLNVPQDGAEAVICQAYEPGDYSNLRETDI
T2 sequence (P43140 whole entry): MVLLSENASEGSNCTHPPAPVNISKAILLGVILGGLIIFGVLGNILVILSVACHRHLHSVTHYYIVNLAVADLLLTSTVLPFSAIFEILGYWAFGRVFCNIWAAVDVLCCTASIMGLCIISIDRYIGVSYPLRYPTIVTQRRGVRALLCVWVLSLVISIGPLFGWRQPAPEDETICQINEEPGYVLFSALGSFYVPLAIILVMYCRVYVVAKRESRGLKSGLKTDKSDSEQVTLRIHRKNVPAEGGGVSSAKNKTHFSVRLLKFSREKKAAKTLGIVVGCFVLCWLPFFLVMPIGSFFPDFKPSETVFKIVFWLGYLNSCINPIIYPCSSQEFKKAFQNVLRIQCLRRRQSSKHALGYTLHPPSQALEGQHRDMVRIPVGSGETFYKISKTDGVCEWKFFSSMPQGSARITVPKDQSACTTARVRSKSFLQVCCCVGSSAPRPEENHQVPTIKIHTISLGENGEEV
Kind of experiment: Displacement of [3H]prazosin from alpha-1 adrenergic receptor of rat brain homogenate.

Experiment [3] has as its target T3, D(4) dopamine receptor (Homo sapiens, UniProt P21917).
T3 sequence (P21917 whole entry): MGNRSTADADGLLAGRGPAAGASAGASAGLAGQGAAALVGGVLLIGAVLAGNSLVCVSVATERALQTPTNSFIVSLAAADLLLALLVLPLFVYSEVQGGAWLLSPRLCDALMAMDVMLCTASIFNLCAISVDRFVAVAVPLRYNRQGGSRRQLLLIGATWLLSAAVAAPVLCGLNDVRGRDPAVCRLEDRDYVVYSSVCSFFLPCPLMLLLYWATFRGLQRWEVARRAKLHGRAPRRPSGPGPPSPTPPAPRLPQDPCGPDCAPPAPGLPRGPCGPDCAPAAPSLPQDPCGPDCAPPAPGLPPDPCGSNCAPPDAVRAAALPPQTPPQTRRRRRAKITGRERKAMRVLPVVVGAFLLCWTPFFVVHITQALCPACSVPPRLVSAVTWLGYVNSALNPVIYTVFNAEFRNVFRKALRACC
The experiment in a line: Displacement of [3H]-YM 09151 from D4 receptor.

Experiment [4] deals with T3, D(4) dopamine receptor. The experiment in a line: D4 receptor functional activity was measured inhibition of quinpirole stimulated [35S]GTP-gamma-S binding from cell membranes.
For experiment [5], the target named is T1, D(2) dopamine receptor. Kind of experiment: D2 receptor functional activity was measured through reversal of quinpirole inhibited, forskolin stimulated cAMP production from whole cells.

From ChEMBL document CHEMBL1136593, “Design, synthesis, and discovery of 5-piperazinyl-1,2,6,7-tetrahydro-5H-azepino[3,2,1-hi]indol-4-one derivatives: a novel series of mixed dopamine D2/D4 receptor antagonist” (Bioorg Med Chem Lett, 2003) come the findings set out here.

Each structure is given as a SMILES string.

T1 sequence (P14416 whole entry): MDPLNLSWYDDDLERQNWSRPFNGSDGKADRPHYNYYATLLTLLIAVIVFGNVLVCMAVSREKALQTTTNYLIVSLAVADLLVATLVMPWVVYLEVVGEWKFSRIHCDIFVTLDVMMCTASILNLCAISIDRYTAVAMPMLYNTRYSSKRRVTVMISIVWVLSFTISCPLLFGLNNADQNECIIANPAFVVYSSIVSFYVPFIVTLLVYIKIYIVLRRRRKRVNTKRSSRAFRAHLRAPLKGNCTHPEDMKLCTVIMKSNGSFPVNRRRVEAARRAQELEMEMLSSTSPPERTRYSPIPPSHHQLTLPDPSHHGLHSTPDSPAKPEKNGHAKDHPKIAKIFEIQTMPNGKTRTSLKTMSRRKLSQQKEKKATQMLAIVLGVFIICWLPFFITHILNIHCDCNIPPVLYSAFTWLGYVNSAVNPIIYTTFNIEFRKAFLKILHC

As for `COc1cc(C)ccc1CN1CCN(C2CCc3cccc4c3N(C2=O)C(C)(C)C4)CC1` (configuration not stated), the results for the Ki in experiment [1], in experiment [2] and in experiment [3] were 952 nM, 653 nM and 34 nM, respectively.

Consider `Cc1ccc(CN2CCN(C3CCc4cccc5c4N(C3=O)C(C)C5)CC2)cc1` (configuration not stated), for which the Ki in experiment [1] was determined as 26 nM; in experiment [2], 1000 nM; in experiment [3], 10 nM.

Consider `CC1Cc2cccc3c2N1C(=O)C(N1CCN(Cc2ccc(Cl)cc2)CC1)CC3` (configuration not stated), for which the Ki was 139 nM in experiment [1] and 1000 nM in experiment [2].

On to `COc1ccc(C)cc1CN1CCN(C2CCc3cccc4c3N(C2=O)C(C)(C)C4)CC1` (configuration not stated), for which the inhibitory constant (Ki) in experiment [1] was 313 nM; in experiment [2] it was 983 nM; in experiment [3], 65 nM.

`Cc1ccc(CN2CCN(C3CCc4cccc5c4N(CC5)C3=O)CC2)cc1` (configuration not stated): the Ki in experiment [1] amounted to 209 nM; in experiment [2], 1361 nM.

In the case of `Cc1ccc(CN2CCN(C3CCc4cccc5c4N(C3=O)C(C)(C)C5)CC2)cc1` (configuration not stated), the Ki in experiment [1] stood at 165 nM; in experiment [2], 490 nM; in experiment [3], 12 nM.

Take `O=C1C(N2CCN(Cc3ccc(Cl)cc3)CC2)CCc2cccc3c2N1CC3` (configuration not stated): the inhibitory constant (Ki) worked out at 3 nM in experiment [4]; 62 nM in experiment [5]; 116 nM in experiment [1]; 2284 nM in experiment [2]; 5 nM in experiment [3].

Regarding `COc1ccc(Cl)cc1CN1CCN(C2CCc3cccc4c3N(C2=O)C(C)(C)C4)CC1` (configuration not stated), the inhibitory constant (Ki) in experiment [1] came out at 220 nM; in experiment [2], 1056 nM; in experiment [3], 29 nM.

`CC1(C)Cc2cccc3c2N1C(=O)C(N1CCN(Cc2ccc(Cl)cc2)CC1)CC3` (configuration not stated): the inhibition constant (Ki) in experiment [2] came out at 1735 nM.

In experiment [2], `CCN1C(=O)C(N2CCN(Cc3ccc(Cl)cc3)CC2)CCc2ccccc21` (configuration not stated) yielded an inhibition constant Ki of 2678 nM.

Consider `CCN1C(=O)C(N2CCN(Cc3ccc(Cl)cc3)CC2)Cc2ccccc21` (configuration not stated), for which the inhibition constant Ki in experiment [2] turned out to be 1265 nM.
